{"source": "patent US6613541B1", "about": "“Method for monitoring proteasome inhibitor drug action” (Millennium Pharmaceuticals, Inc., priority 1998, dated 2003)", "key": {"[1]": {"tested_on": "20S proteasome", "test": "Ex vivo 20S proteasome activity in peripheral white blood cells of mice after single intravenous administration", "parameters": "species or system female CD2-F1 mice and female BALB/c mice", "description": "(§1) The amount of 20S proteasome activity in the test sample is calculated according to the following formula: [formula]\n(§2) Dose formulations of 1 were prepared daily during the course of the study. Dilutions were prepared from a stock solution. The stock solution of 1 was made up in 98% saline (0.9%), 2% ethanol with 0.1% ascorbic acid. Dilutions of the stock were made in the same vehicle.\n(§3) Drugs were administered in vehicle intravenously (IV) using a dose volume of 100 μL per mouse or 1.0 mL/kg in rats. Control groups were administered with the vehicle (98% saline [0.9%], 2% ethanol, 0.1% ascorbic acid). Animals were dosed with 1 as a single IV bolus given either once or on multiple occasions.\n(§4) Following IV dosing with 1, blood was withdrawn at various time points and peripheral white blood cells were isolated.\nThe vehicle was […] [0.9%], 2% ethanol, 0.1% ascorbic acid. Blood samples were collected at 1.0 and 24 h following administration. Due to the blood volume required in the 20S proteasome activity assay, groups of five mice were sacrificed at the same time and their blood pooled to generate single data points."}, "[2]": {"tested_on": "20S proteasome", "test": "Ex vivo 20S proteasome activity in peripheral white blood cells of rats after single intravenous administration", "parameters": "species or system female Wistar rats", "description": "as §1, §2, §3, §4\nBlood samples were collected at 1.0, 24 and 48 h following administration of 1."}, "[3]": {"parameters": "species or system Sprague-Dawley rats", "settings": "rat, in vivo, iv", "description": "A single dose intravenous pharmacokinetics study with N-(pyrazine) carbonyl-L-phenylalanine-L-leucine boronic acid (1) was conducted in Sprague-Dawley rats (140 to 280 g). Animals were assigned to 3 groups (6/sex in Groups 1 and 2; 9/sex in Group 3). Animals in groups 1, 2, and 3 received 0.03, 0.1 or 0.3 mg/kg of 1, respectively, in the same dose volume.\nBlood samples (approximately 1.0 mL) were collected from the jugular vein of animals pre-dose and at approximately 10 and 30 min and 1, 3 and 24 h post-dose on Day 1."}, "[4]": {"tested_on": "20S proteasome", "test": "Ex vivo 20S proteasome activity in peripheral white blood cells of rats after repeat intravenous administration", "description": "as §1, §3\nIn an additional repeat dose study, male Sprague-Dawley rats (250 to 450 g; n=6 per group) were treated with twice weekly intravenous doses of 1 (0.01 to 0.35 mg/kg/day in a dose volume of 1.0 mL/kg) for two weeks. […] Blood samples were collected 1.0 h after the last dose for evaluation of 20S proteasome activity."}, "[5]": {"tested_on": "20S proteasome", "test": "Ratio of chymotryptic to tryptic activity, titration of inhibitor in human samples", "format": "biochemical", "description": "The percent inhibition (%I) is then calculated according to the following equation: [formula]\nμt=activation factor determined upon titration of the proteasome inhibitor. For the proteasome inhibitor 1, βt=1.28 in human samples.\nComplete activation of the 20S roteasome is achieved within 10 minutes.\nβt=activation factor determined upon titration of the proteasome inhibitor. For the proteasome inhibitor 1, βt=1.28 in human samples."}, "[6]": {"tested_on": "20S proteasome", "test": "Ex vivo 20S proteasome activity in primate white blood cells, twice weekly intravenous dosing for 4 weeks", "parameters": "species or system Cynomolgus monkeys", "description": "Male and female Cynomolgus monkeys (2.2 to 3.5 kg) were assigned to four groups (5/sex/group). Each group received 0 (vehicle control), 0.045, 0.067 or 0.100 mg/kg/dose of 1 as a single intravenous injection in a dose volume of 0.3 mL/kg twice weekly for 4 weeks (days 1, 5, 8, 12, 15, 19, 22 and 26). […] Three males from the control, low- and mid-dose groups, two high-dose males, and three females/group were sacrificed at the end of treatment on Day 27. Two animals/sex/group were designated as recovery animals and received treatment for 4 weeks followed by 2 weeks of recovery; they were sacrificed on Day 41.\nBlood was collected for 20S proteasome activity determination prior to treatment, at 1.0 h after dosing on Days 1, 8, 15 and 22, and at 1.0 h prior to dosing on Days 5, 12, 19 and 26; and on Days 31, 34, 38, and 41 (recovery sacrifice animals)."}, "[7]": {"tested_on": "purified 20S proteasome from rabbit reticulocytes (tryptic activity)", "test": "Tryptic activity of purified 20S proteasome (Rs substrate, fluorometry)", "quoted_text": "The assay is based upon the SDS-inducible chymotrypsin-like and trypsin-like activities of free 20S proteasome particles. It uses fluorometry to measure the rate at which the 20S proteasome hydrolyzes an amide bond in a small peptide substrate.\nThe Rs substrate is dissolved to 10 mM in DMSO. The Rs substrate buffer, containing 20 mM HEPES, 0.5 mM EDTA, 0.6% DMSO, and 60 μM Rs substrate, is prepared.\n20 μL of a test sample is added to a cuvette containing 2 mL of Rs substrate buffer at 37° C., and the reaction is allowed to run for 10 minutes. Complete activation of the 20S proteasome is achieved within 10 minutes. Consistent results are obtained for readings taken after 4 minutes and up to 10 minutes. The maximum linear slope for at least 1 minute of data is measured. If the rate is less than 1 pmol AMC/sec, the measurement is repeated using 20 μL of the test sample in 800 μL Rs buffer.\n(§5) Chymotryptic and tryptic assays were performed as described in Examples 3 and 5 at increasing concentrations of the proteasome inhibitor 1.\nChymotryptic and tryptic assays were performed as described in Examples 3 and 5 at increasing concentrations of the proteasome inhibitor 1. The data was fitted to vc/vt=kc/kt*(1−f)/(1−f+βt*f), where kc/kt=2.88±0.03, βt=1.38±0.05, and %I=f*100 (FIG. 12)."}, "[8]": {"tested_on": "20S proteasome in rat white blood cell lysates", "test": "Ratio of chymotryptic to tryptic activity in rat white blood cell lysates", "format": "biochemical", "settings": "fit of vc/vt", "excerpt": "Data was fitted as in Example 10, to give kc/kt=17.6± and βt=1.1±0.2 (FIG. 13)."}, "[9]": {"target": "T1, 20S proteasome (Rattus norvegicus, UniProt P28075)", "T1 sequence (P28075 60-263)": "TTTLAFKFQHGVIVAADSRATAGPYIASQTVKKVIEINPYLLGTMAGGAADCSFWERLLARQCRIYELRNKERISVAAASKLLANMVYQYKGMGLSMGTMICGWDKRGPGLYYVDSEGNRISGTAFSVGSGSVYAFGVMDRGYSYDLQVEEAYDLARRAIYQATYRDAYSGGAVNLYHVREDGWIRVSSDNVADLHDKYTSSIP", "description": "In two studies, female Wistar rats (150 to 200 g) were administered a single intravenous dose of 1 (0.03, 0.1 and 0.3 mg/kg in a dose volume of 1.0 mL/kg). […] Tissue samples were collected from liver and brain at 1.0, 24 and 48 h following administration for evaluation of 20S proteasome activity."}, "[10]": {"tested_on": "purified 20S proteasome from rabbit reticulocytes (chymotryptic activity)", "test": "Chymotryptic activity of purified 20S proteasome (Ys substrate, fluorometry)", "quoted_text": "The assay is based upon the SDS-inducible chymotrypsin-like activity of free 20S particles. It uses fluorometry to measure the rate at which the 20S proteasome hydrolyzes an amide bond in a small peptide substrate. Measurement of this rate in the absence and in the presence of an inhibitor allows a determination of how enzyme is bound by inhibitor.\nThe Ys substrate is dissolved to 6 mM in DMSO. A 2% (2 g/100 mL) solution of SDS in MilliQ water is prepared in a glass bottle. The Ys substrate buffer, containing 20 mM HEPES, 0.5 mM EDTA, 0.035% SDS, 1% DMSO, and 60 μM Ys substrate, is prepared. The final pH of the Ys buffer is 8.0.\n10 μL of a test sample is added to a cuvette containing 2 mL of Ys substrate buffer at 37° C., and the reaction is allowed to run for 10 minutes. Complete activation of the 20S proteasome is achieved within 10 minutes. Consistent results are obtained for readings taken after 4 minutes and up to 10 minutes. The maximum linear slope for at least 1 minute of data is measured. If the rate is less than 1 pmol AMC/sec, the measurement is repeated using 20 μL of the test sample.\nas §5"}, "[11]": {"target": "T1, 20S proteasome", "test": "Ex vivo 20S proteasome activity in rat blood and tissues 1.0 h after intravenous administration (third study)", "parameters": "from tissue; host or cells: rat liver and brain (Wistar); blood, brain, colon, liver, muscle, prostate, testes (Sprague-Dawley); species or system male Sprague-Dawley rats", "description": "Blood and tissue samples were collected 1.0 h following administration for evaluation of 20S proteasome activity. The tissues collected were brain, colon, liver, muscle (gastrocnemius), prostate and testes."}, "[12]": {"settings": "alternate daily IV for 14 days, 24 h after last dose"}, "[13]": {"settings": "daily IV for 7 days, 24 h after last dose"}, "[14]": {"settings": "once weekly IV for 8 weeks, 24 h after last dose"}, "[15]": {"settings": "inferred from absence of 20S proteasome inhibition"}, "[16]": {"settings": "1.0 h after single IV 0.1 and 0.3 mg/kg"}}, "note": "“Also recorded” adds a separate entry of the source. Like-named read-outs stand apart in the source and are kept apart here.", "data": [{"smiles": "CC(C)C[C@H](NC(=O)[C@H](Cc1ccccc1)NC(=O)c1cnccn1)B(O)O", "note": "[compound 1, N-(pyrazine)carbonyl-L-phenylalanine-L-leucine boronic acid]", "values": [{"measurement": "20S proteasome activity in white blood cells", "setting": "[1]; 1.0 h after single IV 0.1 to 3.0 mg/kg, all dose groups", "value": "significant (p<0.05) dose-related decrease"}, {"measurement": "20S proteasome activity in white blood cells", "setting": "[1]; 24 h after single IV 0.1 to 3.0 mg/kg", "value": "starts to recover"}, {"measurement": "inhibition of 20S proteasome activity in peripheral white blood cells (overall)", "setting": "[1]; single intravenous injection, mice", "value": "dose-dependent and reversible inhibition"}, {"measurement": "20S proteasome activity in white blood cells", "setting": "[2]; 1.0 h after single IV 0.03 to 0.3 mg/kg", "value": "significant (p<0.05) dose-related decrease"}, {"measurement": "20S proteasome activity in white blood cells", "setting": "[2]; 24 h after single IV 0.03 to 0.3 mg/kg", "value": "smaller, but remained significant (p<0.05) in the higher dose groups"}, {"measurement": "20S proteasome activity in white blood cells", "setting": "[2]; 48 h after single IV 0.03 to 0.3 mg/kg", "value": "no longer significantly decreased"}, {"measurement": "inhibition of 20S proteasome activity in peripheral white blood cells (overall)", "setting": "[2]; single intravenous injection, rats", "value": "dose-dependent and reversible inhibition"}, {"measurement": "clearance from the blood", "setting": "[3]", "value": "rapidly cleared from the blood"}, {"measurement": "time to peak concentration (Tmax)", "setting": "[3]; 0.3 mg/kg", "value": "≤ 10", "unit": "min"}, {"measurement": "extent of 20S proteasome inhibition compared with single dose", "setting": "[4]; 24 h after 7 daily IV doses", "value": "greater than that observed 24 h after administration of a single intravenous dose"}, {"measurement": "20S proteasome activity in white blood cells", "setting": "[4]; [12]", "value": "significant dose-related decrease"}, {"measurement": "dose groups with significant (p<0.05) decrease in 20S proteasome activity", "setting": "[4]; [12]", "value": "≥ 0.2", "unit": "mg/kg"}, {"measurement": "20S proteasome activity in white blood cells", "setting": "[4]; [13]", "value": "dose-related decrease"}, {"measurement": "doses with significant inhibition of 20S proteasome activity", "setting": "[4]; [13]", "value": "≥ 0.05", "unit": "mg/kg"}, {"measurement": "20S proteasome activity in white blood cells", "setting": "[4]; [14]", "value": "significant (p<0.05) dose-related decrease"}, {"measurement": "dose groups with significant (p<0.05) decrease in 20S proteasome activity", "setting": "[4]; [14]", "value": "≥ 0.1", "unit": "mg/kg"}, {"measurement": "20S proteasome activity in white blood cells", "setting": "[4]; twice weekly IV for 2 weeks (4 doses, 0.01 to 0.35 mg/kg/day), male Sprague-Dawley rats, 1.0 h after last dose", "value": "dose-related decrease"}, {"measurement": "dose groups with significant (p<0.05) decrease in 20S proteasome activity", "setting": "[4]; twice weekly IV for 2 weeks, male Sprague-Dawley rats, 1.0 h after last dose", "value": "≥ 0.03", "unit": "mg/kg"}, {"measurement": "βt (activation factor determined upon titration of the proteasome inhibitor)", "setting": "[5]", "value": 1.28}, {"measurement": "clinical condition of high-dose male", "setting": "[6]; 0.100 mg/kg/dose IV twice weekly, Day 26 after receiving 8 doses", "value": "sacrificed in moribund condition"}, {"measurement": "white blood cell 20S proteasome activity", "setting": "[6]; 1.0 h after dosing, 0.045, 0.067 or 0.100 mg/kg/dose IV twice weekly", "value": "significant and dose-related decrease"}, {"measurement": "white blood cell 20S proteasome activity", "setting": "[6]; 72 hours after dosing, prior to the subsequent dose", "value": "recovered"}, {"measurement": "20S proteasome activity in white blood cells of the moribund animal", "setting": "[6]; high-dose male at sacrifice on Day 26 after 8 doses", "value": "low residual 20S proteasome activity"}, {"measurement": "βt (activation factor of tryptic activity)", "setting": "[7]; fit of vc/vt, purified 20S proteasome from rabbit reticulocytes", "value": "1.38±0.05"}, {"measurement": "effect on tryptic activity", "setting": "[7]; increasing concentrations of 1, same concentration range", "value": "activation; also recorded: activated"}, {"measurement": "βt (activation factor of tryptic activity)", "setting": "[8]", "value": "1.1±0.2"}, {"measurement": "20S proteasome activity in rat liver", "setting": "[9]; 1.0 h after single IV 0.03, 0.1 and 0.3 mg/kg", "value": "significant (p<0.05) dose-related decrease"}, {"measurement": "20S proteasome activity in rat liver", "setting": "[9]; 24 h after single IV, high dose group 0.3 mg/kg", "value": "smaller, but remained significant (p<0.05) in the high dose group"}, {"measurement": "20S proteasome activity in rat liver", "setting": "[9]; 48 h after single IV", "value": "returned to baseline"}, {"measurement": "penetration of 1 into brain tissue", "setting": "[9]; [15]", "value": "lack of penetration"}, {"measurement": "20S proteasome inhibition in brain tissue", "setting": "[9]; single IV 0.03, 0.1 and 0.3 mg/kg, 1.0, 24 and 48 h", "value": "No 20S proteasome inhibition was observed"}, {"measurement": "βc (factor for chymotryptic site activity of E I complex; 0 = total inhibition)", "setting": "[10]", "value": 0}, {"measurement": "effect on chymotryptic activity", "setting": "[10]; increasing concentrations of 1", "value": "fully inhibits; also recorded: fully inhibitable"}, {"measurement": "20S proteasome activity in peripheral white blood cells, colon, liver, muscle (gastrocnemius), and prostate", "setting": "[11]; [16]", "value": "Significant (p<0.05) dose-related decreases"}, {"measurement": "20S proteasome inhibition in brain and testes", "setting": "[11]; [16]", "value": "No 20S proteasome inhibition was observed"}, {"measurement": "penetration of 1 into brain and testes", "setting": "[11]; [15]", "value": "lack of 1 penetration"}]}]}
